From patent US8642588B2, “Short-acting benzodiazepine salts and their polymorphic forms” (priority 2006, dated 2014)
In brackets after ≈: the same amount, converted by molar mass. Read-outs that look alike come from different tables or passages of the source.

Assays:
Format in all cases: physicochemical
Solubility in water = conditions: thermodynamic from solid, 25° C., maximum 10 mg/ml of parent free form
Experimental: This was measured by suspending enough compound in 0.25 ml of solvent (water) to give a maximum final concentration of 10 mg/ml of the parent free form of the compound. The suspension was equilibrated at 25° C. for 24 hrs followed by a pH check and filtration through a glass fibre C 96 well plate. The filtrate is then diluted down 101×. Quantitation was by HPLC with reference to a standard dissolved in DMSO at approx 0.1 mg/ml. Different volumes of the standard, diluted and undiluted tests were injected. The solubility was calculated by integration of the peak area found at the same retention time as the peak maximum in the standard injection. If there is sufficient solid in the filter plate the XRPD is normally checked for phase changes, hydrate formation, amorphization, crystallization etc.

[1] = Solid-state stability study of compound of formula (I) (appearance, HPLC content); conditions: 34 days
Experimental: Method/Technique. 2 mg samples of compound of formula (I), accurately weighed, were placed in 4-mL clear glass screw-cap vials. Samples were tested at initial and after 34 days stored at 5° C./Ambient Relative Humidity (AMRH) Closed, 30° C./60% RH Closed, 40° C./75% RH Open and 60° C./AMRH Closed.
Samples were inspected visually for appearance. Compound of formula (I) content values were determined by the HPLC method in Table 1. The % weight/weight (% w/w) values were measured relative to standard samples of compound of formula (I) Batch U12438/79/1. The % area values were obtained by dividing the compound of formula (I) peak area by the total peak area.

[2] = Solubility in organic solvents; conditions: organic solvent or mixture, read-out: Min solvent required (solubility)
Experimental: The solubility of the compound of formula (I) was determined in a wide range of organic solvents.

[3] = pKa determination (potentiometric titration, Sirius GlpKa); conditions: MeOH:H2O mixtures, extrapolated to 0% co-solvent, free base
Experimental: Two basic centres of the free base of the compound were measured for pKa. […] The pKa of the basic centre of the imidazole ring was measured to be 4.53.
pka determination was performed on a Sirius GlpKa instrument with D-PAS attachment. Measurements were made by potentiometric titration in MeOH:H2O mixtures at 25° C. The titration media was ionic strength adjusted with 0.15M KCl. The values found in the MeOH:H2O mixtures were extrapolated to 0% co-solvent via a Yasuda-Shedlovsky extrapolation.

| SMILES | solubility at 24 h (Solubility in water) [mg/mL] | Appearance ([1]; 40 C./75% RH Open) | Appearance ([1]; 60 C./AMRH Closed) | solubility ([2]; acetone) [mg/mL] | solubility ([2]; acetonitrile) [mg/mL] | solubility ([2]; ethanol) [mg/mL] | solubility ([2]; ethyl acetate) [mg/mL] | solubility ([2]; methanol) [mg/mL] | solubility ([2]; propan-2-ol) [mg/mL] | solubility ([2]; tetrahydrofuran) [mg/mL] | solubility ([2]; toluene) [mg/mL] | pKa ([3]; basic centre of the imidazole ring) | pKa ([3]; basic centre of the pyridine ring) |
| --- | --- | --- | --- | --- | --- | --- | --- | --- | --- | --- | --- | --- | --- |
| COC(=O)CC[C@@H]1N=C(c2ccccn2)c2cc(Br)ccc2-n2c(C)cnc21 [LJC-039-034-1] | 7.8 (≈ 17.8 mM) | – | – | – | – | – | – | – | – | – | – | – | – |
| COC(=O)CC[C@@H]1N=C(c2ccccn2)c2cc(Br)ccc2-n2c(C)cnc21 [compound of formula (I), Methyl 3-[(4S)-8-bromo-1-methyl-6-(2-pyridinyl)-4H-imidazol[1,2-a][1,4]benzodiazepin-4-yl]propanoate] | – | Deliquesced yellow mass on bottom | Deliquesced dark yellow to orange | 214 | 362 | 324 | 218 | 446 | 454 | 311 | 460 | 4.53 | 1.99 |
